EC50 data for six compounds are collected here from patent publication US5827871A, “Medicaments 1,2,3,4-tetrahydrocarbazoles and 5-HT1 agonist use thereof” (priority 1991, dated 1998).

Structures can show the parent of a compound that is named as a salt.

One assay deals with 5-HT1-like receptor (Canis lupus familiaris, UniProt P79250). The experiment in a line: 5-HT1-like receptor screen, dog saphenous vein contraction. Conditions: contraction of dog saphenous vein helicoids, 37° C., in presence of ketanserin, prazosin, atropine, mepyramine, cocaine and ascorbate; EC50 estimated from concentration-effect curve. On the procedure: 5-HT1 -like Receptor Screen
Sequence of 5-HT1-like receptor (Canis lupus familiaris, UniProt P79250) (P79250 whole entry): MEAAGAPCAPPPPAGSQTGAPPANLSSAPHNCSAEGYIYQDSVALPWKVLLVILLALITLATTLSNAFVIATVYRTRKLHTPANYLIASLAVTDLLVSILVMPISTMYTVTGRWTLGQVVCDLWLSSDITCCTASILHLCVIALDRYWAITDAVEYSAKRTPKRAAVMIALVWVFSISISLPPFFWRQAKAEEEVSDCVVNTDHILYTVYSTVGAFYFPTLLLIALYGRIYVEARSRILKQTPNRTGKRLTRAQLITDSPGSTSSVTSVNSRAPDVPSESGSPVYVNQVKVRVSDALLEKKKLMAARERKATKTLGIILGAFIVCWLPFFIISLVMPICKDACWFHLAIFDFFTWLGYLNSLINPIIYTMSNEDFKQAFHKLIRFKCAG
Helicoids of dog saphenous vein were set up at 37° C. in modified Krebs solution at a resting force of 10 mN. The solution also contained 1 μmol/l each of ketanserin prazosin, atropine and mepyramine, 6 μmol/l cocaine and 200 μmol/l ascorbate. Nearly […] contractions were measured with force transducers on a polygraph. The tissues were exposed twice to 5-hydroxytryptamine (5-HT) 2 μmol/l followed by washes. A cumulative concentration-effect curve was determined, followed by a curve to 5-HT in the presence of the highest used concentration of test compound. Contractions caused by the test compound were compared with those caused by 5-HT. The intrinsic activity of the test compound was calculated as the ratio of the maximum test compound-induced effect over the effect caused by 2 μmol/l 5-HT. The EC50 of the test compound was estimated from the corresponding effect curve. When appropriate equilibrium dissociation constants Kp were estimated by the method of Marano & Kaumann (1976, J. Pharmacol. Exp. Ther. 198, 518-525).
As to `CNS(=O)(=O)Cc1ccc2[nH]c3c(c2c1)CC(N)CC3` (stereo not shown) [Example 11, 3-Amino-6-(N-methylsulphonamidomethyl)-1,2,3,4-tetrahydrocarbazole oxalate], the EC50 (commonly the midpoint of the concentration-response curve) is 0.1 to 15 µM.

Take `CNC1CCc2[nH]c3ccc(C(N)=O)cc3c2C1` (stereo not shown) [Example 24, 3-Methylamino-6-carboxamido-1,2,3,4-tetrahydrocarbazole hydrochloride]: the EC50 was 0.1 to 15 µM.

For `N#CCc1ccc2[nH]c3c(c2c1)CC(N)CC3` (stereo not shown) [Example 10, 3-Amino-6-cyanomethyl-1,2,3,4-tetrahydrocarbazole oxalate], the EC50 was 0.1 to 15 µM.

With `CC(=O)Nc1ccc2[nH]c3c(c2c1)CC(N)CC3` (stereo not shown) [Example 21, 3-Amino-6-(acetamido)-1,2,3,4-tetrahydrocarbazole oxalate], the EC50 is 0.1 to 15 µM.

For the next assay, the target named is T1, 5-HT1-like receptor (Oryctolagus cuniculus, UniProt P49144).
T1 construct: from tissue; host or cells: rabbit basilar artery (endothelium-denuded ring segments)
T1 sequence (P49144 whole entry): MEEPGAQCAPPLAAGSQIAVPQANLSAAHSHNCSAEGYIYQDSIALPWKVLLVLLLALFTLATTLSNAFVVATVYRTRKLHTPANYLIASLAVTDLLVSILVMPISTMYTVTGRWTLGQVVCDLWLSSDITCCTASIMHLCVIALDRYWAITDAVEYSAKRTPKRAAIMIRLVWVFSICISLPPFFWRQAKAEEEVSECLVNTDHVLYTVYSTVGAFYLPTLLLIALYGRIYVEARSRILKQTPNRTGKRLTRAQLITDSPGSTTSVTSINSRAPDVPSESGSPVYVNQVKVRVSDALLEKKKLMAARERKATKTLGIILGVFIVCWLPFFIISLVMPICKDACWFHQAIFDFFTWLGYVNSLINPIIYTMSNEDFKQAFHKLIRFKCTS
The experiment in a line: 5-HT1-like receptor screen, rabbit isolated basilar artery contraction. Conditions: isometric tension of endothelium-denuded rabbit basilar artery rings, in presence of ascorbate, indomethacin, cocaine, ketanserin and prazosin. How it is done: Experiments were performed in intracranial arteries from rabbit isolated basilar artery in a similar method to one described previously (Parsons and Whalley, 1989. Eur J Pharmacol 174, 189-196.).
In brief, rabbits were killed by overdose with anaesthetic (sodium pentobarbitone). The whole brain was quickly removed and immersed in ice cold modified Kreb's solution and the basilar artery removed with the aid of a dissecting microscope. The Krebs solution was of the following composition (mM) Na^+ (120); K^+ (5); Ca^2+ (2.25); Mg^2+ (0.5); Cl^- (98.5); SO4^2- (1); EDTA (0.04), equilibrated with 95% O2 /5% CO2. The endothelium was removed by a gentle rubbing of the lumen with a fine metal wire. Arteries were then cut into ring segments (ca 4-5 mm wide) and set up for recording of isometric tension in 50 ml tissue baths in modified Krebs solution with the additional supplement of (mM); […] (20); fumarate (10); pyruvate (5); L-glutamate (5) and glucose (10). The arteries were then placed under a resting force of 3-4 mN maintained at 37° C. and the solution bubbled with 95% O2 /5% CO2.
After tests for initial reactivity with 90 mM KCl depolarising solution and for lack of acetylcholine-induced relaxation of 5-HT ([…]) precontraction, cumulative concentration-effect curves ([…]) to 5-HT were constructed in the presence of ascorbate […], cocaine […], indomethacin […], ketanserin […] and prazosin […].
Following a 45-60 min wash period, cumulative concentration-effect curves to the test compounds or 5-HT (as a time match control) were constructed in the presence of ascorbate, indomethacin, cocaine, ketanserin and prazosin.
For the compound `NC1CCc2[nH]c3ccc(S(N)(=O)=O)cc3c2C1` (stereo not shown) [Example 15, 3-Amino-6-sulphonamido-1,2,3,4-tetrahydrocarbazole oxalate], the half-maximal effective concentration (EC50) lay within 0.04 to 15 µM.

As for `CNC1CCc2[nH]c3ccc(C(N)=O)cc3c2C1` (stereo not shown) [Example 24, 3-Methylamino-6-carboxamido-1,2,3,4-tetrahydrocarbazole hydrochloride], the EC50 lay within 0.04 to 15 µM.

Regarding `NC(=O)c1ccc2[nH]c3c(c2c1)CC(NCc1ccccc1)CC3` (stereo not shown) [Example 29, 3-Benzylamino-6-carboxamido-1,2,3,4-tetrahydrocarbazole oxalate], the concentration for a half-maximal effect (EC50) was in the range of 0.04 to 15 µM.
